Reference: patent publication US10829464B2, “Benzoheterocyclic alkylamine compounds and use thereof” (priority 2016, dated 2020)

System: S. aureus strain Newman
Test: IC50 determination of inhibition of staphyloxanthin synthesis
Format: cell-based
Settings: Staphylococcus aureus; S. aureus strain Newman, Table 1; read-out: IC50, inhibitory activity on staphyloxanthin synthesis
Experimental: Selection of compound concentrations: based on the preliminary screening results, the ability of each compound to inhibit staphyloxanthin synthesis was determined. […] According to the assay results, 10 different concentration gradients were designed for each compound, such that the ability to inhibit staphyloxanthin synthesis comprised substantially from 0% to 100%.
Culture of the strains: single colonies of strain Newman and crtN mutant strain were picked from TSA plates, added into test tubes containing 4 mL of sterile TSB medium, and cultured at 37° C. and 250 rpm for 12 h for later use.
The relative level of staphyloxanthin synthesis at each concentration of the compound of the invention=A450 (sample)/A450 (negative control)*100%. With the molar concentration of the compound as the abscissa and the relative level of staphyloxanthin synthesis as the ordinate, a curve fitting of inhibitor concentration-inhibition rate (log(inhibitor) vs response) was performed in Graphpad prism 5.0 software, and the IC50 of the compound for inhibiting staphyloxanthin synthesis was calculated by software based on the fitting results.
S. aureus was selected for IC50 determination with respect to activity of inhibiting staphyloxanthin synthesis. […]

| SMILES | IC50 [nM] |
| --- | --- |
| COc1cccc(/C=C/CN(C)Cc2coc3ccccc23)c1 [Compound IA-20, (E)-N-methyl-N-[(benzofuran-3-yl)methylene]-3-(3-methoxyphenyl)-prop-2-en-1-amine] | > 1000 |
| CCN(C/C=C/c1ccc(C(F)(F)F)cc1)Cc1coc2ccccc12 [Compound IB-2, (E)-N-ethyl-N-[(benzofuran-3-yl)methylene]-3-(4-trifluoromethylphenyl)-prop-2-en-1-amine] | > 1000 |
| COc1ccc(/C=C/CN(C)Cc2coc3ccccc23)cc1F [Compound IA-38, (E)-N-methyl-N-[(benzofuran-3-yl)methylene]-3-(3-fluoro-4-methoxyphenyl)-prop-2-en-1-amine] | > 1000 |
| CN(C/C=C/c1ccccc1Cl)Cc1coc2ccccc12 [Compound IA-8, (E)-N-methyl-N-[(benzofuran-3-yl)methylene]-3-(2-chlorophenyl)prop-2-en-1-amine] | 360 ± 57.8 |
| COc1ccc(/C=C/CN(C)Cc2coc3ccccc23)c(F)c1 [Compound IA-35, (E)-N-methyl-N-[(benzofuran-3-yl)methylene]-3-(2-fluoro-4-methoxyphenyl)-prop-2-en-1-amine] | > 1000 |
| CN(CCCc1ccc(-c2ccccc2)cc1)Cc1coc2ccccc12 [Compound IE-1, 3-([1,1′-biphenyl]-4-yl)-N-(benzofuran-3-ylmethyl)-N-methylpropan-1-amine] | > 1000 |
| FC(F)(F)c1ccc(/C=C/CNCc2coc3ccccc23)cc1 [Compound IB-1] | > 1000 |
| CN(C/C=C/c1ccc2ccccc2c1)Cc1coc2ccccc12 [Compound IA-26, (E)-N-methyl-N-[(benzofuran-3-yl)methylene]-3-(2-naphthyl)-prop-2-en-1-amine] | 6.4 ± 0.6 |
| CN(C/C=C/c1ccc(C(C)(C)C)cc1)Cc1coc2ccccc12 [Compound IA-27, (E)-N-methyl-N-[(benzofuran-3-yl)methylene]-3-(4-tert-butylphenyl)-prop-2-en-1-amine] | > 1000 |
| CN(C/C=C/c1ccc(C(F)(F)F)c(F)c1)Cc1coc2ccccc12 [Compound IA-9, (E)-N-methyl-N-[(benzofuran-3-yl)methylene]-3-(3-fluoro-4-trifluoromethyl-phenyl)prop-2-ene-1-the amine] | > 1000 |
| CN(C/C=C/c1ccco1)Cc1coc2ccccc12 [Compound IA-14] | > 1000 |
| CN(C/C=C/c1cccc2ccccc12)Cc1coc2ccccc12 [Compound IA-10, (E)-N-methyl-N-[(benzofuran-3-yl)methylene]-3-(naphthalen-1-yl)prop-2-en-1-amine] | > 1000 |
| COc1ccccc1/C=C/CN(C)Cc1coc2ccccc12 [Compound IA-34, (E)-N-methyl-N-[(benzofuran-3-yl)methylene]-3-(2-methoxyphenyl)-prop-2-en-1-amine] | > 1000 |
| CN(C/C=C/c1ccccc1)Cc1coc2ccccc12 [Compound IA-1, (E)-N-methyl-N-[(benzofuran-3-yl)methylene]-3-phenylprop-2-en-1-amine] | > 1000 |
| CN(C/C=C/c1ccc(C(F)(F)F)cc1)Cc1coc2ccccc12 [Compound IA-2, (E)-N-methyl-N-[(benzofuran-3-yl)methylene]-3-(4-trifluoromethylphenyl)-prop-2-en-1-amine] | 9.8 ± 0.3 |
| CN(C/C=C/c1cccs1)Cc1coc2ccccc12 [Compound IA-33, (E)-N-methyl-N-[(benzofuran-3-yl)methylene]-3-thiophen-2-en-1-amine] | > 1000 |
| C/C=C/CN(C)Cc1coc2ccccc12 [Compound IA-23] | > 1000 |
| CN(C/C=C/C1CCCCC1)Cc1coc2ccccc12 [Compound IA-32] | > 1000 |
| CN(C/C=C/c1cccc(C(F)(F)F)c1)Cc1coc2ccccc12 [Compound IA-18, (E)-N-methyl-N-[(benzofuran-3-yl)methylene]-3-(3-trifluoromethylphenyl)-prop-2-en-1-amine] | > 1000 |
| CN(C/C=C/c1ccc(C(F)(F)F)cc1)Cc1cc2ccccc2o1 [Compound IF-1, (E)-N-(benzofuran-2-ylmethyl)-N-methyl-3-(4-(trifluoromethyl)phenyl)prop-2-en-1-amine] | 70.3 ± 5.2 |
| CN(C/C=C/c1ccccc1[N+](=O)[O-])Cc1coc2ccccc12 [Compound IA-22, (E)-N-methyl-N-[(benzofuran-3-yl)methylene]-3-(2-nitrophenyl)-prop-2-en-1-amine] | > 1000 |

| SMILES | IC50 [nM] |
| --- | --- |
| CN(C/C=C/c1ccc([N+](=O)[O-])cc1)Cc1coc2ccccc12 [Compound IA-16, (E)-N-methyl-N-[(benzofuran-3-yl)methylene]-3-(4-nitrophenyl)-prop-2-en-1-amine] | 9.5 ± 3.2 |
| Cc1ccccc1/C=C/CN(C)Cc1coc2ccccc12 [Compound IA-36, (E)-N-methyl-N-[(benzofuran-3-yl)methylene]-3-(2-methylphenyl)-prop-2-en-1-amine] | 86.4 ± 0.6 |
| CN(C/C=C/c1ccc(C(F)(F)F)cc1)Cc1csc2ccccc12 [Compound IA-41, (E)-N-(benzo[b]thiophen-3-ylmethyl)-N-methyl-3-(4-(trifluoromethyl)phenyl)prop-2-en-1-amine] | 52.1 ± 0.8 |
| CN(C/C=C/c1ccc(Br)cc1)Cc1coc2ccccc12 [Compound IA-5, (E)-N-methyl-N-[(benzofuran-3-yl)methylene]-3-(4-bromophenyl)prop-2-en-1-amine] | 2.5 ± 0.3 |
| CN(C/C=C/c1ccc(C(F)(F)F)cc1F)Cc1coc2ccccc12 [Compound IA-31, (E)-N-methyl-N-[(benzofuran-3-yl)methylene]-3-(2-fluoro-4-trifluoromethyl-phenyl)-prop-2-en-1-amine] | 9.2 ± 0.4 |
| CN(C/C=C/c1ccc(F)cc1)Cc1coc2ccccc12 [Compound IA-4, (E)-N-methyl-N-[(benzofuran-3-yl)methylene]-3-(4-fluorophenyl)prop-2-en-1-amine] | 74.1 ± 2.7 |
| CN(C/C=C/c1ccccc1C(F)(F)F)Cc1coc2ccccc12 [Compound IA-30, (E)-N-methyl-N-[(benzofuran-3-yl)methylene]-3-(2-trifluoromethylphenyl)-prop-2-en-1-amine] | > 1000 |
| CN(C/C=C/c1cccc([N+](=O)[O-])c1)Cc1coc2ccccc12 [Compound IA-29, (E)-N-methyl-N-[(benzofuran-3-yl)methylene]-3-(3-nitrophenyl)-prop-2-en-1-amine] | > 1000 |
| Cc1ccc(/C=C/CN(C)Cc2coc3ccccc23)cc1 [Compound IA-21, (E)-N-methyl-N-[(benzofuran-3-yl)methylene]-3-(4-methylphenyl)-prop-2-en-1-amine] | 9.9 ± 1.8 |
| CN(C/C=C/c1ccc(C#N)cc1)Cc1coc2ccccc12 [Compound IA-24, (E)-N-Methyl-N-[(benzofuran-3-yl)methylene]-3-(4-cyanophenyl)-prop-2-en-1-amine] | 80.1 ± 4.7 |
| CN(C/C=C/C=C/c1ccc(-c2ccccc2)cc1)Cc1coc2ccccc12 [Compound IA-39, (2E,4E)-5-([1,1′-biphenyl]-4-yl)-N-(benzofuran-3-ylmethyl)-N-methylpenta-2,4-dien-1-amine] | > 1000 |
| CN(C/C=C/c1cccc(F)c1)Cc1coc2ccccc12 [Compound IA-19, (E)-N-methyl-N-[(benzofuran-3-yl)methylene]-3-(3-fluorophenyl)-prop-2-en-1-amine] | > 1000 |
| CN(C/C=C/c1ccc(Cl)cc1)Cc1coc2ccccc12 [Compound IA-3, (E)-N-methyl-N-[(benzofuran-3-yl)methylene]-3-(4-chlorophenyl)prop-2-en-1-amine] | 4.9 ± 0.1 |
| CN(CC/C=C/c1ccc(-c2ccccc2)cc1)Cc1coc2ccccc12 [Compound IA-40, (E)-4-([1,1′-biphenyl]-4-yl)-N-(benzofuran-3-ylmethyl)-N-methylbut-3-en-1-amine] | > 1000 |
| CN(C/C=C/c1ccccc1F)Cc1coc2ccccc12 [Compound IA-28, (E)-N-methyl-N-[(benzofuran-3-yl)methylene]-3-(2-fluorophenyl)-prop-2-en-1-amine] | > 1000 |
| CC(C)N(C/C=C/c1ccc(C(F)(F)F)cc1)Cc1coc2ccccc12 [Compound IB-3, (E)-N-isopropyl-N-[(benzofuran-3-yl)methylene]-3-(4-trifluoromethylphenyl)-prop-2-en-1-amine] | > 1000 |
| CN(C/C=C/c1cccc(Cl)c1)Cc1coc2ccccc12 [Compound IA-12, (E)-N-methyl-N-[(benzofuran-3-yl)methylene]-3-(3-chlorophenyl)prop-2-en-1-amine] | > 1000 |
| CN(C/C=C/c1ccc(C(F)F)cc1)Cc1coc2ccccc12 [Compound IA-6, (E)-N-methyl-N-[(benzofuran-3-yl)methylene]-3-(4-difluoromethylphenyl)-prop-2-en-1-amine] | 6.4 ± 0.1 |
| CN(C/C=C/C1CCCC1)Cc1coc2ccccc12 [Compound IA-7, (E)-N-methyl-N-[(benzofuran-3-yl)methylene]-3-(4-cyclopentyl)prop-2-en-1-amine] | 397 ± 20.3 |
| CN(C/C=C/c1ccc(C(F)(F)F)cc1)Cc1cc2ccccc2s1 [Compound IF-2, (E)-N-(benzo[b]thiophen-2-ylmethyl)-N-methyl-3-(4-(trifluoromethyl)phenyl)prop-2-en-1-amine] | 95.3 ± 1.6 |
| CN(C/C=C/c1ccc(Cl)cc1Cl)Cc1coc2ccccc12 [Compound IA-11, (E)-N-methyl-N-[(benzofuran-3-yl)methylene]-3-(2,4-dichlorophenyl)prop-2-en-1-amine] | 6.2 ± 0.5 |
